Assay: Human HepG2 cell viability assay in 384 well format
Format: toxicity, cell-based
Design: dose 125 nL, time 70.5 hour; concentration not given beside the values
Conditions: HepG2 cells, read-out: Inhibition
`O[C@H]1CCN(CCCOc2ccccc2F)C[C@@]12CCCO2` gave a cytotoxicity at 70.5 h of 18.1%. Compound `CCC(C)Sc1ncc(-c2c(C#N)c(N)nc3c2COCC3)cn1` (stereo unspecified) has a cytotoxicity at 70.5 h of 6.03%. Work on `O=C(CCC1CCCC1)NCc1nnc2ccccn12` yielded a cytotoxicity at 70.5 h of -10.1%. Compound `CC(=O)N1CCCC(C(=O)N2CCN(c3cnn(C)c(=O)c3)CC2)C1` (stereo unspecified) has a cytotoxicity at 70.5 h of 9.66%. With `Cn1cc(-c2noc(C3(C)CCOCC3)n2)cn1` the cytotoxicity at 70.5 h was 11.7%. `Cc1ccc(S(=O)(=O)c2ncccc2CN2CCN(C)CC2)cc1` gave a cytotoxicity at 70.5 h of -11.2%. With `Cc1nc(CN2C[C@@H]3CN(C(=O)c4ccncc4)C[C@@H]3C2)cs1` the cytotoxicity at 70.5 h was -9.65%. Work on `Cc1sc2nc(CCN)nc(N3CCN(S(C)(=O)=O)CC3)c2c1C` yielded a cytotoxicity at 70.5 h of -8.4%. `Cc1cnc(N2C[C@@H]3[C@@H](C2)OCC(=O)N3CC2CC2)nc1` gave a cytotoxicity at 70.5 h of 14.2%. `Cc1ccc(S(=O)(=O)N2C[C@H](C3CC3)[C@@H](N)C2)cc1F` gave a cytotoxicity at 70.5 h of -3.15%. In the case of `O=C([C@@H]1CC[C@@H]2[C@@H](CCN2c2ccncn2)O1)N1CCCCO1`, the cytotoxicity at 70.5 h is reported as -0.768%. Work on `O=C(NCc1cccnc1)C1=NOC2(CCN(C3CCOCC3)C2)C1` (stereo unspecified) yielded a cytotoxicity at 70.5 h of -11.3%. In the case of `COc1cccc(-n2nnc(C(=O)N3CCCCCC3)c2C)c1`, the cytotoxicity at 70.5 h is reported as -12.9%. For `CC(C)c1noc(C(C)N2CCN(CCO)CC2)n1` (stereo unspecified), the cytotoxicity at 70.5 h was -1.66%. For `Cc1nc2c(c(N[C@H](C(N)=O)C(C)C)n1)Cc1ccccc1OC2`, the cytotoxicity at 70.5 h was -11.2%. `CCOc1ccccc1NC(=O)NCC(C)(O)CCSC` (stereo unspecified) gave a cytotoxicity at 70.5 h of -3.88%. Compound `CCn1c(N)nc2cc(C(=O)NCCc3ccncc3)cnc21` has a cytotoxicity at 70.5 h of -13.4%. Work on `COc1cc(C(=O)N2CCCC2CC(=O)c2cnn(C)c2)ccc1F` (stereo unspecified) yielded a cytotoxicity at 70.5 h of 8.93%. Compound `COc1cccc(-c2noc(C3CCN(Cc4ccncc4)C3)n2)c1` (stereo unspecified) has a cytotoxicity at 70.5 h of -3.26%. With `Cc1ccc(C(=O)N2CC3(CCNCC3)c3cc(Cl)ccc32)cn1` the cytotoxicity at 70.5 h was -7.61%. For `O=C1NCc2ccc(NC(=O)C3CCCN3c3nccs3)cc21` (stereo unspecified), the cytotoxicity at 70.5 h was -9.24%. With `CCc1nccn1C1CCCN(C(=O)CCOCC(F)(F)F)C1` (stereo unspecified) the cytotoxicity at 70.5 h was -14%. `CCc1ncc(CN2CCOC(Cc3cccc(F)c3)C2)cn1` (stereo unspecified) gave a cytotoxicity at 70.5 h of -9.07%. With `Cc1cccc2c1C(=O)NC1(CCOCC1)N2` the cytotoxicity at 70.5 h was -13.5%. With `Cc1[nH]ncc1CCCNC(=O)N1CCOC(C)C1` (stereo unspecified) the cytotoxicity at 70.5 h was -5.97%. `CN(CCc1cccs1)C(=O)Nc1ccc2c(c1)C(=O)N(C)CC2` gave a cytotoxicity at 70.5 h of -7.01%. With `CN1CCN(Cc2cn3c(n2)CN(CC2CC2)CC3)CC1` the cytotoxicity at 70.5 h was -2.8%. With `CS(=O)(=O)N1CC2(CCN(CC3CCCCC3)CC2)Cc2ccccc21` the cytotoxicity at 70.5 h was 29.9%. With `Cc1nc(N2CCCC2)ncc1-c1cc(O)nc(N2CCCC2)n1` the cytotoxicity at 70.5 h was -11.7%. For `CC(C)c1cc(N2CCC[C@H](N)C2)n2nccc2n1`, the cytotoxicity at 70.5 h was -4.66%. `COc1ccc(C(CC(=O)NCc2n[nH]c(N)n2)c2ccccc2)cc1` (stereo unspecified) gave a cytotoxicity at 70.5 h of -4.65%. Compound `O=C(C1CC1)N1CCN(C(=O)C2CC(=O)N(c3ccccc3Br)C2)CC1` (stereo unspecified) has a cytotoxicity at 70.5 h of 26.2%. In the case of `Cc1oncc1C(=O)N1CCC2(CC1)CC(c1ccccc1)C(=O)N2C` (stereo unspecified), the cytotoxicity at 70.5 h is reported as -19%. Work on `COCc1nc(N2CC[C@H](N(C)C)C2)c2cnn(C)c2n1` yielded a cytotoxicity at 70.5 h of -10%. Work on `CNc1cccc(C2CCCN(C(=O)c3cccnc3)C2)n1` (stereo unspecified) yielded a cytotoxicity at 70.5 h of 20.4%. In the case of `CC(C)c1cc(C(=O)N2C[C@@H](C)[C@](O)(C3CC3)C2)[nH]n1`, the cytotoxicity at 70.5 h is reported as -5.59%. `COc1ccc(C)cc1C(=O)N1CCCC(n2cncn2)C1` (stereo unspecified) showed a cytotoxicity at 70.5 h of -3.25%. Work on `O=C(c1cccs1)N1CCCn2cnc(COCC3CC3)c2C1` yielded a cytotoxicity at 70.5 h of -12.8%. `Cc1ccccc1CNC(=O)N1C[C@H]2C[C@H](C(=O)N(C)C)[C@@H](C1)O2` gave a cytotoxicity at 70.5 h of -5.69%. `Cc1ccc2nc(C)c(C)c(C(=O)NCCCn3cnnc3)c2c1` gave a cytotoxicity at 70.5 h of -2.61%. In the case of `CC(C)n1cc(CN2CCCN(C(=O)C(C)n3cccn3)CC2)cn1` (stereo unspecified), the cytotoxicity at 70.5 h is reported as -2.97%. For `CCc1nccn1C1CCCN(C(=O)c2cn3c(C)cccc3n2)C1` (stereo unspecified), the cytotoxicity at 70.5 h was -3.89%. Work on `COc1cccc(OCC2CCCN(C(=O)Cc3cccc(O)c3)C2)c1` (stereo unspecified) yielded a cytotoxicity at 70.5 h of -11.3%. In the case of `CN1CC(C(=O)NC2(c3cccc(F)c3)CCOCC2)CC1=O` (stereo unspecified), the cytotoxicity at 70.5 h is reported as -7.9%. `CC1CCN(CCCNS(=O)(=O)Cc2ccccc2F)CC1` gave a cytotoxicity at 70.5 h of 1.01%. `CCc1nnc(CN(CC)C(=O)CCc2scnc2C)o1` showed a cytotoxicity at 70.5 h of -2.72%. In the case of `COc1c(CNCC(O)COc2ccc3c(c2)OCO3)c(C)nn1C` (stereo unspecified), the cytotoxicity at 70.5 h is reported as 14.9%. For `CCc1nnc(CN(C)Cc2cccc(C(=O)Nc3ccnn3C)c2)o1`, the cytotoxicity at 70.5 h was 1.53%. `CCc1noc(C2CCCCN2C(=O)c2ccoc2C)n1` (stereo unspecified) showed a cytotoxicity at 70.5 h of 9.18%. `CCC(C)(C)NC(=O)CN(C)C(c1cccc(F)c1)c1ccccn1` (stereo unspecified) showed a cytotoxicity at 70.5 h of 0.639%. Work on `CC(C)OCCC(=O)Nc1cc(C(=O)N(C)C(C)C)ccc1Cl` yielded a cytotoxicity at 70.5 h of 4.24%. For `CC(C)C(=O)N1CCN(Cc2csc(-c3ccccn3)n2)CC1`, the cytotoxicity at 70.5 h was -7.7%. For `CCS(=O)(=O)N1CC[C@H](OC)[C@@H]1Cc1ccncc1`, the cytotoxicity at 70.5 h was 3.22%. With `COCCNC(=O)C(C)n1nc(-c2ccco2)cc(N)c1=O` (stereo unspecified) the cytotoxicity at 70.5 h was 23.7%. `CC(=O)NCc1nnn2c1CN(c1ncccn1)CCC2` gave a cytotoxicity at 70.5 h of -7.48%. `O=C(C1CN(CC2CCOCC2)CC12CCOCC2)N1CCCC1` (stereo unspecified) gave a cytotoxicity at 70.5 h of -2.27%. With `Cc1ccc(NC2CCN(C(=O)Cn3nc(C)cc3C)CC2)nn1` the cytotoxicity at 70.5 h was -6.3%. `CCOC(=O)c1cnn(-c2cc(Oc3cc(C)ccc3C)ncn2)c1N` gave a cytotoxicity at 70.5 h of -0.831%. With `COCC1CC2(CCN(C(N)=O)CC2)CN1Cc1csc(C)n1` (stereo unspecified) the cytotoxicity at 70.5 h was -3.74%. In the case of `O=C(CCCc1cn[nH]c1)N1C[C@@H](CN2CCCCCC2)[C@@H](CO)C1`, the cytotoxicity at 70.5 h is reported as -6.07%. `CC(C)c1nc(CN2CCN(C(C)c3nc(C4CC4)no3)CC2)no1` (stereo unspecified) showed a cytotoxicity at 70.5 h of -4.05%. For `c1cc(-c2cn[nH]c2)ccc1CN1CCCCC1`, the cytotoxicity at 70.5 h was 13.1%. Work on `Cc1ccc(N2CCC(NCc3cnc(C4CCC4)s3)CC2)nc1` yielded a cytotoxicity at 70.5 h of 6.63%. With `COc1cccc(C(O)CNC(=O)CC2CCCCC2)c1` (stereo unspecified) the cytotoxicity at 70.5 h was -8.34%. For `CCC(Nc1nnnn1-c1ccccc1)C(=O)Nc1ccccc1C` (stereo unspecified), the cytotoxicity at 70.5 h was -11%. Work on `CCc1noc(C(C)N2CCN(C)CC2)n1` (stereo unspecified) yielded a cytotoxicity at 70.5 h of -7.05%. Compound `CC(=O)NS(=O)(=O)c1ccc2c(c1)N(C)CCC2` has a cytotoxicity at 70.5 h of -5.49%. For `COCCN1CC[C@]2(CN(Cc3cccnc3)C[C@H]2C)C1=O`, the cytotoxicity at 70.5 h was -10.8%. For `Cc1ccc(S(=O)(=O)N(C)Cc2cnccn2)cc1N(C)C`, the cytotoxicity at 70.5 h was -1.07%. Work on `O=C(COc1ccccc1N1CCCC1)N1CCN[C@H]2CS(=O)(=O)C[C@H]21` yielded a cytotoxicity at 70.5 h of -7.17%. In the case of `c1ccc(-c2nnc3n2CCN(Cc2ccc4c(c2)OCCO4)C3)cc1`, the cytotoxicity at 70.5 h is reported as 26.9%. In the case of `CN(CCC1CCOCC1)C(=O)C1CCC(=O)N(Cc2ccccn2)C1` (stereo unspecified), the cytotoxicity at 70.5 h is reported as 13.4%. Compound `Cn1cccc1C(=O)N1C[C@H]2CN(Cc3cccc(F)c3)C[C@H]2C1` has a cytotoxicity at 70.5 h of -6.11%. Compound `CN1CCN(C(=O)Cc2csc(-c3ccsc3)n2)C(c2ccccc2)C1` (stereo unspecified) has a cytotoxicity at 70.5 h of -3.75%. `O=C(NCc1csc(Br)c1)c1ccc(=O)[nH]n1` gave a cytotoxicity at 70.5 h of -15.6%. `CS(=O)(=O)CCSc1cccc(C#N)c1` showed a cytotoxicity at 70.5 h of -4.4%. With `CCOCc1ccc(CNc2cncc(-n3cccn3)n2)cc1` the cytotoxicity at 70.5 h was 8.54%. `CC(C)CCN(C)C(=O)c1cnc2c(cnn2CC(C)C)c1` gave a cytotoxicity at 70.5 h of 1.58%. Work on `Cn1nc(C(C)(C)C)cc1NC(=O)CSc1nnc[nH]1` yielded a cytotoxicity at 70.5 h of -4.97%. For `c1ccc(CN2CCC3(CC2)CCN(Cc2cccnc2)C3)nc1`, the cytotoxicity at 70.5 h was -9.45%. For `O=c1[nH]c(=O)n(CC(O)c2ccccc2Cl)cc1Cl` (stereo unspecified), the cytotoxicity at 70.5 h was -5.98%.

From ChEMBL document CHEMBL3507680, “University of Dundee, Gates Library screen for HepG2 cell viability”
